From BindingDB's records for doi:10.1074/jbc.M607913200 (Incyte, 2006)
Non-standard residues stand in square brackets, D forms with d. Residues, ends and D or L forms follow the SMILES beside them. F2Pmp = N[C@@H](Cc1ccc(C(F)(F)P(=O)(O)O)cc1)C(=O)O

Biological target: T1, Tyrosine-protein phosphatase non-receptor type 1 [1-298] (Homo sapiens, UniProt P18031)
T1 construct: 1-298
T1 sequence (P18031 whole entry): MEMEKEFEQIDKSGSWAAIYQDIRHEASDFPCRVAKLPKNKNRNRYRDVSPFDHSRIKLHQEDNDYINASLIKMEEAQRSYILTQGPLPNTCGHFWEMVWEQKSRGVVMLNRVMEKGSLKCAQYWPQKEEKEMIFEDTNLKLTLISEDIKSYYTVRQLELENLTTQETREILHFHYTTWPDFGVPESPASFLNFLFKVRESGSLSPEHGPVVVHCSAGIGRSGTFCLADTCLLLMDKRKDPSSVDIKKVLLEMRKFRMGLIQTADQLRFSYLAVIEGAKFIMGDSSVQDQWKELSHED
Assay: Phosphatase Inhibition Assay

Structure (SMILES)	IC50	IC50 (pH 7, 22 °C)
CC(=O)N[C@@H](Cc1ccc(C2CC(=O)NS2(=O)=O)cc1)c1nc2ccccc2[nH]1 (stereo partly drawn) [N-[(1S)-1-(1H-1,3-benzodiazol-2-yl)-2-[4-(1,1,3-trioxo-1,2-thiazolidin-5-yl)phenyl]ethyl]acetamide]	2600 nM	–
CC(C)c1ccc(S(=O)(=O)N[C@@H](Cc2ccc(C3CC(=O)NS3(=O)=O)cc2)c2nc3ccccc3[nH]2)cc1 (stereo partly drawn) [N-[(1S)-1-(1H-1,3-benzodiazol-2-yl)-2-[4-(1,1,3-trioxo-1,2-thiazolidin-5-yl)phenyl]ethyl]-4-(propan-2-yl)benzene-1-sulfonamide]	100 nM	–
NC(=O)[C@H](Cc1ccc(C(F)(F)P(=O)(O)O)cc1)NC(=O)CNC(=O)Cc1ccc(C(F)(F)P(=O)(O)O)cc1 [({4-[(2S)-2-carbamoyl-2-[2-(1-{4-[difluoro(phosphono)methyl]phenyl}acetamido)acetamido]ethyl]phenyl}difluoromethyl)phosphonic acid]	–	42 nM
CC(C)C(=O)N[C@@H](Cc1ccc(C2CC(=O)NS2(=O)=O)cc1)c1nc2ccccc2[nH]1 (stereo partly drawn) [N-[(1S)-1-(1H-1,3-benzodiazol-2-yl)-2-[4-(1,1,3-trioxo-1,2-thiazolidin-5-yl)phenyl]ethyl]-2-methylpropanamide]	3200 nM	–
O=C1CC(c2ccc(C[C@H](NS(=O)(=O)c3ccc(Br)c(C(F)(F)F)c3)c3nc4ccccc4[nH]3)cc2)S(=O)(=O)N1 (stereo partly drawn) [N-[(1S)-1-(1H-1,3-benzodiazol-2-yl)-2-[4-(1,1,3-trioxo-1,2-thiazolidin-5-yl)phenyl]ethyl]-4-bromo-3-(trifluoromethyl)benzene-1-sulfonamide]	40 nM	–
O=C1CC(c2ccc(C[C@H](NS(=O)(=O)c3cccc(Oc4ccccc4)c3)c3nc4ccccc4[nH]3)cc2)S(=O)(=O)N1 (stereo partly drawn) [N-[(1S)-1-(1H-1,3-benzodiazol-2-yl)-2-[4-(1,1,3-trioxo-1,2-thiazolidin-5-yl)phenyl]ethyl]-3-phenoxybenzene-1-sulfonamide]	110 nM	–
O=C1CC(c2ccc(C[C@H](NS(=O)(=O)c3cc(Cl)cc(Cl)c3)c3nc4ccccc4[nH]3)cc2)S(=O)(=O)N1 (stereo partly drawn) [N-[(1S)-1-(1H-1,3-benzodiazol-2-yl)-2-[4-(1,1,3-trioxo-1,2-thiazolidin-5-yl)phenyl]ethyl]-3,5-dichlorobenzene-1-sulfonamide]	51 nM	–
O=C1CC(c2ccc(C[C@H](NS(=O)(=O)c3ccccc3)c3nc4ccccc4[nH]3)cc2Cl)S(=O)(=O)N1 (stereo partly drawn) [N-[(1S)-1-(1H-1,3-benzodiazol-2-yl)-2-[3-chloro-4-(1,1,3-trioxo-1,2-thiazolidin-5-yl)phenyl]ethyl]benzenesulfonamide]	75 nM	–
Cc1ccccc1S(=O)(=O)N[C@@H](Cc1ccc(C2CC(=O)NS2(=O)=O)cc1)c1nc2ccccc2[nH]1 (stereo partly drawn) [N-[(1S)-1-(1H-1,3-benzodiazol-2-yl)-2-[4-(1,1,3-trioxo-1,2-thiazolidin-5-yl)phenyl]ethyl]-2-methylbenzene-1-sulfonamide]	300 nM	–
N#Cc1cc(C[C@H](NS(=O)(=O)c2ccccc2)c2nc3ccccc3[nH]2)ccc1C1CC(=O)NS1(=O)=O (stereo partly drawn) [N-[(1S)-1-(1H-1,3-benzodiazol-2-yl)-2-[3-cyano-4-(1,1,3-trioxo-1,2-thiazolidin-5-yl)phenyl]ethyl]benzenesulfonamide]	31 nM	–
C#Cc1cc(C[C@H](NS(=O)(=O)c2ccccc2)c2nc3ccccc3[nH]2)ccc1C1CC(=O)NS1(=O)=O (stereo partly drawn) [N-[(1S)-1-(1H-1,3-benzodiazol-2-yl)-2-[3-ethynyl-4-(1,1,3-trioxo-1,2-thiazolidin-5-yl)phenyl]ethyl]benzenesulfonamide]	120 nM	–
O=C1CC(c2ccc(C[C@H](NS(=O)(=O)c3ccccc3)c3nc4ccccc4[nH]3)cc2F)S(=O)(=O)N1 (stereo partly drawn) [N-[(1S)-1-(1H-1,3-benzodiazol-2-yl)-2-[3-fluoro-4-(1,1,3-trioxo-1,2-thiazolidin-5-yl)phenyl]ethyl]benzenesulfonamide]	34 nM	–
CN1CCOc2cc(S(=O)(=O)N[C@@H](Cc3ccc([C@@H]4CC(=O)NS4(=O)=O)cc3)c3nc4ccccc4[nH]3)ccc21 [N-[(1S)-1-(1H-benzoimidazol-2-yl)-2-[4-[(5S)-1,1,3-trioxo-1,2-thiazolidin-5-yl]phenyl]ethyl]-7-methyl-10-oxa-7-azabicyclo[4.4.0]deca-2,4,11-triene-3-sulfonamide]	–	59 nM

Results, then the molecule that gave them:

IC50	IC50 (pH 7, 22 °C)	Structure (SMILES)
–	0.4 nM	NC(=O)[C@H](Cc1ccc(C(F)(F)P(=O)(O)O)cc1)NC(=O)[C@@H](NC(=O)Cc1ccc(C(F)(F)P(=O)(O)O)cc1)C(=O)O [(2R)-2-{[(1S)-1-carbamoyl-2-{4-[difluoro(phosphono)methyl]phenyl}ethyl]carbamoyl}-2-(1-{4-[difluoro(phosphono)methyl]phenyl}acetamido)acetic acid]
90 nM	–	Cc1cc(S(=O)(=O)N[C@@H](Cc2ccc(C3CC(=O)NS3(=O)=O)cc2)c2nc3ccccc3[nH]2)ccc1-c1ccccc1 (stereo partly drawn) [N-[(1S)-1-(1H-1,3-benzodiazol-2-yl)-2-[4-(1,1,3-trioxo-1,2-thiazolidin-5-yl)phenyl]ethyl]-3-methyl-4-phenylbenzene-1-sulfonamide]
120 nM	–	O=C1CC(c2ccc(C[C@H](NS(=O)(=O)c3ccccc3)c3nc4ccccc4[nH]3)cc2)S(=O)(=O)N1 (stereo partly drawn) [N-[(1S)-1-(1H-1,3-benzodiazol-2-yl)-2-[4-(1,1,3-trioxo-1,2-thiazolidin-5-yl)phenyl]ethyl]benzenesulfonamide]
–	1800 nM	O=C1C[C@@H](c2ccc(C[C@H](Nc3nc4c(F)cc(Cl)cc4s3)c3nc4ccccc4[nH]3)cc2)S(=O)(=O)N1 [(5S)-5-{4-[(2S)-2-(1H-1,3-benzodiazol-2-yl)-2-[(6-chloro-4-fluoro-1,3-benzothiazol-2-yl)amino]ethyl]phenyl}-1,2-thiazolidine-1,1,3-trione]
66 nM	–	O=C1CC(c2ccc(C[C@H](NS(=O)(=O)c3cccc(F)c3)c3nc4ccccc4[nH]3)cc2)S(=O)(=O)N1 (stereo partly drawn) [N-[(1S)-1-(1H-1,3-benzodiazol-2-yl)-2-[4-(1,1,3-trioxo-1,2-thiazolidin-5-yl)phenyl]ethyl]-3-fluorobenzene-1-sulfonamide]
300 nM	–	CC(F)(F)C(=O)N[C@@H](Cc1ccc(C2CC(=O)NS2(=O)=O)cc1)c1nc2ccccc2[nH]1 (stereo partly drawn) [N-[(1S)-1-(1H-1,3-benzodiazol-2-yl)-2-[4-(1,1,3-trioxo-1,2-thiazolidin-5-yl)phenyl]ethyl]-2,2-difluoropropanamide]
–	46 nM	O=C(Cc1ccc(C(F)(F)P(=O)(O)O)cc1)N[C@@H](Cc1ccccc1)C(=O)NCCc1ccc(C(F)(F)P(=O)(O)O)cc1 [[(4-{2-[(2S)-2-(1-{4-[difluoro(phosphono)methyl]phenyl}acetamido)-3-phenylpropanamido]ethyl}phenyl)difluoromethyl]phosphonic acid]
–	1700 nM	CC(=O)N[C@@H](Cc1ccccc1)C(=O)N[C@@H](Cc1ccc(C(F)(F)P(=O)(O)O)cc1)C(N)=O [DFMP 5] (Ac-Phe-[F2Pmp]-NH2)
1100 nM	–	Cc1ccc2nc(N[C@@H](Cc3ccc([C@@H]4CC(=O)NS4(=O)=O)cc3)c3nc4ccccc4[nH]3)sc2c1 [(5S)-5-{4-[(2S)-2-(1H-1,3-benzodiazol-2-yl)-2-[(6-methyl-1,3-benzothiazol-2-yl)amino]ethyl]phenyl}-1,2-thiazolidine-1,1,3-trione]
170 nM	–	O=C1CC(c2ccc(C[C@H](NS(=O)(=O)c3ccccc3)c3nc4ccccc4[nH]3)cc2Br)S(=O)(=O)N1 (stereo partly drawn) [N-[(1S)-1-(1H-1,3-benzodiazol-2-yl)-2-[3-bromo-4-(1,1,3-trioxo-1,2-thiazolidin-5-yl)phenyl]ethyl]benzenesulfonamide]
600 nM	–	O=C(CCc1ccccc1)N[C@@H](Cc1ccc(C2CC(=O)NS2(=O)=O)cc1)c1nc2ccccc2[nH]1 (stereo partly drawn) [N-[(1S)-1-(1H-1,3-benzodiazol-2-yl)-2-[4-(1,1,3-trioxo-1,2-thiazolidin-5-yl)phenyl]ethyl]-3-phenylpropanamide]
80 nM	–	Cc1ccc(S(=O)(=O)N[C@@H](Cc2ccc(C3CC(=O)NS3(=O)=O)cc2)c2nc3ccccc3[nH]2)cc1 (stereo partly drawn) [N-[(1S)-1-(1H-1,3-benzodiazol-2-yl)-2-[4-(1,1,3-trioxo-1,2-thiazolidin-5-yl)phenyl]ethyl]-4-methylbenzene-1-sulfonamide]
–	33000 nM	NC(=O)[C@H](Cc1ccccc1)NC(=O)[C@@H](NC(=O)Cc1ccc(C(F)(F)P(=O)(O)O)cc1)C(=O)O [(2R)-2-{[(1S)-1-carbamoyl-2-phenylethyl]carbamoyl}-2-(1-{4-[difluoro(phosphono)methyl]phenyl}acetamido)acetic acid]
170 nM	–	O=C1CC(c2ccc(C[C@H](NS(=O)(=O)c3ccc(C(F)(F)F)cc3Br)c3nc4ccccc4[nH]3)cc2)S(=O)(=O)N1 (stereo partly drawn) [N-[(1S)-1-(1H-1,3-benzodiazol-2-yl)-2-[4-(1,1,3-trioxo-1,2-thiazolidin-5-yl)phenyl]ethyl]-2-bromo-4-(trifluoromethyl)benzene-1-sulfonamide]
–	1.7 nM	NC(=O)[C@H](Cc1ccc(C(F)(F)P(=O)(O)O)cc1)NC(=O)[C@H](Cc1ccccc1)NC(=O)Cc1ccc(C(F)(F)P(=O)(O)O)cc1 [({4-[(2S)-2-carbamoyl-2-[(2S)-2-(1-{4-[difluoro(phosphono)methyl]phenyl}acetamido)-3-phenylpropanamido]ethyl]phenyl}difluoromethyl)phosphonic acid]
160 nM	–	O=C1CC(c2ccc(C[C@H](NS(=O)(=O)c3ccccc3Cl)c3nc4ccccc4[nH]3)cc2)S(=O)(=O)N1 (stereo partly drawn) [N-[(1S)-1-(1H-1,3-benzodiazol-2-yl)-2-[4-(1,1,3-trioxo-1,2-thiazolidin-5-yl)phenyl]ethyl]-2-chlorobenzene-1-sulfonamide]
–	110 nM	O=C1C[C@@H](c2ccc(C[C@H](NC(=O)C(F)(F)F)c3nc4ccc(C(F)(F)F)cc4[nH]3)cc2)S(=O)(=O)N1 [N-{(1S)-2-[4-(1,1-dioxido-3-oxoisothiazolidin-5-yl)phenyl]-1-[5-(trifluoromethyl)-1H-benzimidazol-2-yl]ethyl}-2,2,2-trifluoroacetamide]
